Reference: patent publication US9801901B2, “Alginate oligomers for use in overcoming multidrug resistance in bacteria” (priority 2009, dated 2017)
Converted amounts (≈) assume the structure as drawn. Where two headings read alike, the source gives them in different places. Marks after values point to notes of the source that are not given here.

How the values were obtained:
[1] = tested on: Acinetobacter baumannii MDR ACB from Libya (V4); test: MIC assay, CAMHB with alginate oligomer, no visible growth; assay type: cell-based; details: Table 4, V4 MDR (Libya)
Source text: (§1) The study described in Example 1 was repeated with the following strains of bacteria and antibiotics as detailed in Tables 4, 5 and 6.
The study described in Example 1 was repeated with the following strains of Acinetobacter baumannii, antibiotics and M-block alginate oligomer in place of OligoG CF-5/20 as detailed in Table 7. The M-block oligomer is 100% M with a DPn of 15 to 18,

[2] = tested on: V10 (Egypt) Acinetobacter lwoffii; test: as above; assay type: cell-based; details: Table 5, V10 MDR Acin. lwoff
[3] = tested on: Pseudomonas aeruginosa ATCC 39324, mucoid type strain (R79); test: as above; assay type: cell-based; details: R79 non MDR (muc.)
V11 5702 (Wales) E. coli = test: as above; assay type: cell-based; details: Table 5, V11 MDR E.coli
[4] = tested on: V9 (Egypt) Acinetobacter baumannii; test: as above; assay type: cell-based; details: Table 5, V9 MDR Acin. baum
V5 AIM-1 E. coli = test: as above; assay type: cell-based; details: Table 4, V5 MDR E. coli
Source text: as §1

[5] = tested on: Pseudomonas aeruginosa MDR R22 from China (V1); test: as above; assay type: cell-based; details: Table 4, V1 MDR (China)
Source text: as §1

V22 6056 Acinetobacter = test: as above; assay type: cell-based, Acinetobacter lwoffii; details: Table 5, V22 MDR Acin. lwoff
[6] = tested on: V23 1322 Burkholderia cepacia; test: as above; assay type: cell-based
[7] = tested on: Pseudomonas aeruginosa CFA 24-1, clinical mucoid strain (R80); test: as above; assay type: cell-based; details: Table 4, R80 non MDR (muc.)
[8] = tested on: V12 5725 (Wales) Klebsiella pneumoniae; test: as above; assay type: cell-based; details: Table 5, V12 MDR Kleb pneu
[9] = tested on: PA01 Pseudomonas aeruginosa ATCC 15692; test: MIC assay, two-fold antibiotic dilutions in CAMHB with alginate oligomer, no visible growth; assay type: cell-based; details: PA01 non MDR
[10] = tested on: Pseudomonas aeruginosa MDR 301 from Poland (V2); test: MIC assay, CAMHB with alginate oligomer, no visible growth; assay type: cell-based; details: Table 4, V2 MDR (Pol.)
[11] = tested on: Klebsiella pneumoniae KP05 506 from India (V3); test: as above; assay type: cell-based; details: Klebsiella pneumoniae, Table 4; V3 MDR (India); OligoCF-5/20 +10% G; read-out: MIC
[12] = Table 5, V23 MDR Burk cep, OligoCF-5/20 +6% G
[13] = Table 5, V23 MDR Burk cep, OligoCF-5/20 +10% G
[14] = Acinetobacter baumannii, OligoCF-5/20 0G, read-out: MIC
[15] = Pseudomonas aeruginosa, OligoCF-5/20 +2% G, read-out: MIC
[16] = Pseudomonas aeruginosa, OligoCF-5/20 +6% G, read-out: MIC
[17] = Pseudomonas aeruginosa, OligoCF-5/20 +10% G, read-out: MIC
[18] = Pseudomonas aeruginosa, OligoCF-5/20 0G, read-out: MIC

Spiramycin
MIC ([1]; OligoCF-5/20 0G): 512^† μg/ml | MIC ([1]; OligoCF-5/20 +2% G): 64^† μg/ml | MIC ([1]; OligoCF-5/20 +6% G): 64^† μg/ml | MIC ([1]; OligoCF-5/20 +10% G): 32^† μg/ml | MIC ([2]; OligoCF-5/20 0G): <4 µg/mL | MIC ([2]; OligoCF-5/20 +2% G): <4 µg/mL | MIC ([2]; OligoCF-5/20 +6% G): <4 µg/mL | MIC ([2]; OligoCF-5/20 +10% G): <4 µg/mL | MIC ([3]; Table 4, OligoCF-5/20 0G): >1024^† μg/ml | MIC ([3]; Table 4, OligoCF-5/20 +10% G): 256^† μg/ml | MIC (V11 5702 (Wales) E. coli; OligoCF-5/20 0G): 128^† μg/ml | MIC (V11 5702 (Wales) E. coli; OligoCF-5/20 +2% G): 64^† μg/ml | MIC (V11 5702 (Wales) E. coli; OligoCF-5/20 +6% G): 32^† μg/ml | MIC (V11 5702 (Wales) E. coli; OligoCF-5/20 +10% G): 32^† μg/ml | MIC ([4]; OligoCF-5/20 0G): 256^† μg/ml | MIC ([4]; OligoCF-5/20 +2% G): 64^† μg/ml | MIC ([4]; OligoCF-5/20 +6% G): 32^† μg/ml | MIC ([4]; OligoCF-5/20 +10% G): 16^† μg/ml | MIC (V5 AIM-1 E. coli; OligoCF-5/20 0G): 32^† μg/ml | MIC (V5 AIM-1 E. coli; OligoCF-5/20 +2% G): 32 µg/mL | MIC (V5 AIM-1 E. coli; OligoCF-5/20 +6% G): 16^† μg/ml | MIC (V5 AIM-1 E. coli; OligoCF-5/20 +10% G): 8† μg/ml | MIC ([5]; OligoCF-5/20 0G): >1024^† μg/ml | MIC ([5]; OligoCF-5/20 +10% G): 512^† μg/ml | MIC (V22 6056 Acinetobacter; OligoCF-5/20 0G): <4 µg/mL | MIC (V22 6056 Acinetobacter; OligoCF-5/20 +2% G): <4 µg/mL | MIC (V22 6056 Acinetobacter; OligoCF-5/20 +6% G): <4 µg/mL | MIC (V22 6056 Acinetobacter; OligoCF-5/20 +10% G): <4 µg/mL | MIC ([6]; Table 5, V23 MDR Burk cep, OligoCF-5/20 0G): >4096^† μg/ml | MIC ([6]; Table 5, V23 MDR Burk cep, OligoCF-5/20 +2% G): 2048^† μg/ml | MIC [6, 12]: 2048^† μg/ml | MIC [6, 13]: 1024^† μg/ml | MIC ([7]; OligoCF-5/20 0G): >1024^† μg/ml | MIC ([8]; OligoCF-5/20 0G): 67^† μg/ml | MIC ([8]; OligoCF-5/20 +2% G): 64 µg/mL | MIC ([8]; OligoCF-5/20 +6% G): 32^† μg/ml | MIC ([8]; OligoCF-5/20 +10% G): 16† μg/ml | MIC ([9]; Table 4, OligoCF-5/20 0G): >1024^† μg/ml | MIC ([9]; Table 4, OligoCF-5/20 +10% G): 512^† μg/ml | MIC ([10]; OligoCF-5/20 0G): >1024^† μg/ml

CC[C@H]1OC(=O)[C@H](C)[C@@H](O[C@H]2C[C@@](C)(OC)[C@@H](O)[C@H](C)O2)[C@H](C)[C@@H](O[C@@H]2O[C@H](C)C[C@H](N(C)C)[C@H]2O)[C@](C)(OC)C[C@@H](C)C(=O)[C@H](C)[C@@H](O)[C@]1(C)O [Clarithromycin]
MIC [1, 14]: 8 µg/mL (≈ 10.7 µM) | MIC ([1]; Acinetobacter baumannii, OligoCF-5/20 +2% G, read-out: MIC): 4 µg/mL (≈ 5.35 µM) | MIC ([1]; Acinetobacter baumannii, OligoCF-5/20 +6% G, read-out: MIC): ≤ 1 µg/mL | MIC ([1]; Acinetobacter baumannii, OligoCF-5/20 +10% G, read-out: MIC): ≤ 1 µg/mL | MIC ([2]; Acinetobacter lwoffii, OligoCF-5/20 0G, read-out: MIC): < 0.5 µg/mL | MIC ([2]; OligoCF-5/20 +6% G): <0.5 µg/mL | MIC ([2]; OligoCF-5/20 +10% G): <0.5 µg/mL | MIC ([3]; Pseudomonas aeruginosa, ATCC39324, Table 4, OligoCF-5/20 +2% G, read-out: MIC): 128 µg/mL (≈ 171 µM) | MIC ([3]; Pseudomonas aeruginosa, ATCC39324, Table 4, OligoCF-5/20 +6% G, read-out: MIC): 32 µg/mL (≈ 42.8 µM) | MIC ([3]; Pseudomonas aeruginosa, ATCC39324, Table 4, OligoCF-5/20 +10% G, read-out: MIC): 4 µg/mL (≈ 5.35 µM) | MIC (V11 5702 (Wales) E. coli; Escherichia coli, OligoCF-5/20 0G, read-out: MIC): 512 µg/mL (≈ 685 µM) | MIC (V11 5702 (Wales) E. coli; OligoCF-5/20 +2% G): 128^† μg/ml | MIC [4, 14]: 16 µg/mL (≈ 21.4 µM) | MIC ([4]; OligoCF-5/20 +2% G): 4^† μg/ml | MIC ([4]; OligoCF-5/20 +6% G): 2^† μg/ml | MIC ([4]; OligoCF-5/20 +10% G): 1^† μg/ml | MIC (V5 AIM-1 E. coli; Escherichia coli, OligoCF-5/20 0G): 4 µg/mL (≈ 5.35 µM) | MIC (V5 AIM-1 E. coli; Escherichia coli, OligoCF-5/20 +2% G): 4 µg/mL (≈ 5.35 µM) | MIC (V5 AIM-1 E. coli; Escherichia coli, OligoCF-5/20 +6% G): ≤ 1 µg/mL | MIC (V5 AIM-1 E. coli; Escherichia coli, OligoCF-5/20 +10% G): ≤ 1 µg/mL | MIC [5, 15]: 128 µg/mL (≈ 171 µM) | MIC [5, 16]: 64 µg/mL (≈ 85.6 µM) | MIC [5, 17]: 32 µg/mL (≈ 42.8 µM) | MIC [11]: 128 µg/mL (≈ 171 µM) | MIC ([6]; Burkholderia cepacia, Table 5, V23 MDR Burk cep, OligoCF-5/20 0G, read-out: MIC): 512 µg/mL (≈ 685 µM) | MIC ([6]; Burkholderia cepacia, Table 6, V23, Experiment 2 (18-03-10), OligoCF-5/20 0G, read-out: MIC): 128 µg/mL (≈ 171 µM) | MIC ([6]; Burkholderia cepacia, Table 6, V23, Experiment 3 (19-03-10), OligoCF-5/20 0G, read-out: MIC): 64 µg/mL (≈ 85.6 µM) | MIC [6, 12]: 128^† μg/ml | MIC [6, 13]: 32^† μg/ml | MIC ([6]; Table 6, V23, Experiment 1 (18-03-10), OligoCF-5/20 +6% G): 128^† μg/ml | MIC ([6]; Table 6, V23, Experiment 1 (18-03-10), OligoCF-5/20 +10% G): 128^† μg/ml | MIC ([6]; Table 6, V23, Experiment 2 (18-03-10), OligoCF-5/20 +2% G): 128 µg/mL (≈ 171 µM) | MIC ([6]; Table 6, V23, Experiment 2 (18-03-10), OligoCF-5/20 +6% G): 32^† μg/ml | MIC ([6]; Table 6, V23, Experiment 2 (18-03-10), OligoCF-5/20 +10% G): 16^† μg/ml | MIC ([6]; Table 6, V23, Experiment 3 (19-03-10), OligoCF-5/20 +2% G): 512^‡ μg/ml | MIC ([6]; Table 6, V23, Experiment 3 (19-03-10), OligoCF-5/20 +6% G): 512^‡ μg/ml | MIC ([6]; Table 6, V23, Experiment 3 (19-03-10), OligoCF-5/20 +10% G): 512‡ μg/ml | MIC [7, 18]: 1020 µg/mL (≈ 1370 µM) | MIC [7, 15]: 512 µg/mL (≈ 685 µM) | MIC [7, 17]: 64 µg/mL (≈ 85.6 µM) | MIC ([8]; Klebsiella pneumoniae, OligoCF-5/20 0G, read-out: MIC): 512 µg/mL (≈ 685 µM) | MIC ([8]; OligoCF-5/20 +10% G): 512 µg/mL (≈ 685 µM) | MIC ([9]; Pseudomonas aeruginosa, ATCC15692, Table 4, OligoCF-5/20 +2% G, read-out: MIC): 128 µg/mL (≈ 171 µM) | MIC ([9]; Pseudomonas aeruginosa, ATCC15692, Table 4, OligoCF-5/20 +6% G, read-out: MIC): 64 µg/mL (≈ 85.6 µM) | MIC ([9]; Pseudomonas aeruginosa, ATCC15692, Table 4, OligoCF-5/20 +10% G, read-out: MIC): 32 µg/mL (≈ 42.8 µM) | MIC [10, 18]: 512 µg/mL (≈ 685 µM) | MIC [10, 16]: 128 µg/mL (≈ 171 µM) | MIC [10, 17]: 32 µg/mL (≈ 42.8 µM)
